Patent US8486961B2, “Pyrrolo[4,3,2-de]quinolin-8-amine compounds and methods of their preparation and use” (Wyeth LLC, priority 2008, dated 2013)
Where two headings read alike, the source gives them in different places.

Key:
MDA468 cells = assay: In vitro cell growth assay (MTS), MDA468; assay type: cell-based, human
Description: (§1) Cells of human tumor lines LNCap and MDA468 were plated in 96-well culture plates at approximately 3000 cells per well. One day following plating, various doses of mTOR inhibitors were added to cells. Three days after drug treatment, viable cell densities were determined by metabolic conversion (by viable cells) of the dye MTS, a well-established cell proliferation assay. The assays were performed using an assay kit purchased from Promega Corp. (Madison, Wis.) following the protocol supplied with the kit. The MTS assay results were read in a 96-well plate reader by measuring absorbance at 490 nm. The effect of each treatment was calculated as percent of control growth relative to the vehicle-treated cells grown in the same culture plate. The drug concentration that conferred 50% inhibition of growth was determined as IC50 (μM).

LNCap cells = assay: In vitro cell growth assay (MTS), LNCap; assay type: cell-based, human
Description: as §1

mTOR = biological target: T1, mTOR (Homo sapiens, UniProt P42345); assay: mTOR kinase assay (DELFIA, purified enzyme); assay type: biochemical; conditions: purified FLAG-TOR, 100 μM ATP, His6-S6K substrate; * = compounds 4 and 5 screened as a mixture
T1 construct: FLAG
Description: The routine human TOR assays with purified enzyme were performed in 96-well plates by DELFIA format as follows. Enzymes were first diluted in kinase assay buffer (10 mM Hepes (pH 7.4), 50 mM NaCl, 50 mM β-glycerophosphate, 10 mM MnCl2, 0.5 mM DTT, 0.25 μM microcystin LR, and 100 μg/mL BSA). To each well, 12 μL of the diluted enzyme were mixed briefly with 0.5 μL test inhibitor or control vehicle dimethylsulfoxide (DMSO). The kinase reaction was initiated by adding 12.5 μL kinase assay buffer containing ATP and His6-S6K to give a final reaction volume of 25 μL containing 800 ng/mL FLAG-TOR, 100 μM ATP and 1.25 μM His6-S6K. The reaction plate was incubated for 2 hours (linear at 1-6 hours) at room temperature with gentle shaking and then terminated by adding 25 μL Stop buffer (20 mM Hepes (pH 7.4), 20 mM EDTA, 20 mM EGTA). The DELFIA detection of the phosphorylated (Thr-389) His6-S6K was performed at room temperature using a monoclonal anti-P(T389)-p70S6K antibody (1A5, Cell Signaling) labeled with Europium-N1-ITC (Eu) (10.4 Eu per antibody, PerkinElmer). The DELFIA Assay buffer and Enhancement solution were purchased from PerkinElmer. 45 μL of the terminated kinase reaction mixture was transferred to a MaxiSorp plate (Nunc) containing 55 μL PBS. The His6-S6K was allowed to attach for 2 hours after which the wells were aspirated and washed once with PBS. 100 μL of DELFIA Assay buffer with 40 ng/mL Eu-P(T389)—S6K antibody was added. The antibody binding was continued for 1 hour with gentle agitation. The wells were then aspirated and washed 4 times with PBS containing 0.05% Tween-20 (PBST). 100 μL of DELFIA Enhancement solution was added to each well and the plates were read in a PerkinElmer Victor model plate reader. Data obtained were used to calculate enzymatic activity and enzyme inhibition by potential inhibitors. mTOR IC50 data (reported in μM) is provided in Table 1.

[1] = 72 h, MDA468 human tumor line, 3 days treatment, MTS, * = compounds 4 and 5 screened as a mixture, read-out: MDA 468 IC50
[2] = 72 h, LNCap human tumor line, 3 days treatment, MTS, * = compounds 4 and 5 screened as a mixture
[3] = Homo sapiens, LNCap cell growth

SMILES	IC50 (MDA468 cells; [1]) [nM]	IC50 (MDA468 cells; Homo sapiens, Example 8) [nM]	IC50 (LNCap cells; [2]) [nM]	IC50 (LNCap cells; [3]) [nM]	IC50 (mTOR) [nM]
CCC(=O)Nc1cc(N)c2c3c(cc(C(=O)/C=C/OC)nc13)C=N2 [Compound 1, (E)-N-(8-amino-4-(3-methoxyacryloyl)pyrrolo[4,3,2-de]quinolin-6-yl)-propionamide]	85	50 to 800	48	20 to 300	1.5
CO/C=C/C(=O)c1cc2c3c(c(N)cc(NC(=O)C(C)C)c3n1)N=C2 [Compound 2, (E)-N-(8-amino-4-(3-methoxyacryloyl)pyrrolo[4,3,2-de]quinolin-6-yl)isobutyramide]	58	50 to 800	22	20 to 300	0.8
CCCC(=O)Nc1cc(N)c2c3c(cc(C(=O)CCO)nc13)C=N2 [Compound 3, N-(8-amino-4-(3-hydroxypropanoyl)pyrrolo[4,3,2-de]quinolin-6-yl)butyramide]	> 12000	–	> 12000	–	> 4000
CO/C=C/C(=O)c1cc2c3c(c(N)cc(NC(=O)CC(C)C)c3n1)N=C2 [Compound 4, (E)-N-(8-amino-4-(3-methoxyacryloyl)pyrrolo[4,3,2-de]quinolin-6-yl)-3-methylbutanamide]	700	50 to 800	230	20 to 300	1.8
CCC(C)C(=O)Nc1cc(N)c2c3c(cc(C(=O)/C=C/OC)nc13)C=N2 (stereo not drawn) [Compound 5, (E)-N-(8-amino-4-(3-methoxyacryloyl)pyrrolo[4,3,2-de]quinolin-6-yl)-2-methylbutanamide]	700	–	230	–	1.8
CC(C)C(=O)Nc1cc(N)c2c3c(cc(C(=O)CCO)nc13)C=N2 [Compound 6, N-(8-amino-4-(3-hydroxypropanoyl)pyrrolo[4,3,2-de]quinolin-6-yl)isobutyramide]	1200	–	6500	–	> 4000
CCC(=O)Nc1cc(N)c2c3c(cc(C(=O)CCO)nc13)C=N2 [Compound 7, N-(8-amino-4-(3-hydroxypropanoyl)pyrrolo[4,3,2-de]quinolin-6-yl)propionamide]	400	–	5000	–	> 4000
CC(C)CC(=O)Nc1cc(N)c2c3c(cc(C(=O)CCO)nc13)C=N2 [Compound 8, N-(8-amino-4-(3-hydroxypropanoyl)pyrrolo[4,3,2-de]quinolin-6-yl)-3-methylbutanamide]	3500	–	2900	–	1500
CCC(C)C(=O)Nc1cc(N)c2c3c(cc(C(=O)CCO)nc13)C=N2 (stereo not drawn) [Compound 9, N-(8-amino-4-(3-hydroxypropanoyl)pyrrolo[4,3,2-de]quinolin-6-yl)-2-methylbutanamide]	7600	–	10000	–	3200
